Assays:
[1] = Metabolic stability in human liver microsomes assessed as half life at 1 uM incubated for 30 mins by LC-MS/MS analysis; format: ADME, Microsome
[2] = Metabolic stability in mouse liver microsomes assessed as half life at 1 uM incubated for 30 mins by LC-MS/MS analysis; format: ADME, Microsome
[3] = Distribution coefficient between octanol and PBS, log D of compound in pH 7.4 at 100 uM incubated for 12 hrs by LC-MS/MS analysis; format: physicochemical
[4] = AUC (0 to last) in C57BL/6 mouse at 10 mg/kg, ip measured upto 24 hrs; format: ADME, organism-based; set-up: route intraperitoneal, dose 10 mg/kg, time <=24; conditions: in vivo
[5] = AUC (0 to infinity) in C57BL/6 mouse at 10 mg/kg, ip measured upto 24 hrs; format: ADME, organism-based; set-up: route intraperitoneal, dose 10 mg/kg, time <=24; conditions: in vivo
[6] = Cmax in C57BL/6 mouse at 10 mg/kg, ip measured upto 24 hrs; format: ADME, organism-based; set-up: route intraperitoneal, dose 10 mg/kg, time <=24; conditions: in vivo
[7] = Half life in C57BL/6 mouse at 10 mg/kg, ip measured upto 24 hrs; format: ADME, organism-based; conditions: in vivo
[8] = MRT (0 to last) in C57BL/6 mouse at 10 mg/kg, ip measured upto 24 hrs; format: ADME, organism-based; conditions: in vivo
[9] = AUC extrapolated in C57BL/6 mouse at 10 mg/kg, ip measured upto 24 hrs; format: ADME, organism-based; conditions: in vivo
[10] = Tmax in C57BL/6 mouse at 10 mg/kg, ip measured upto 24 hrs; format: ADME, organism-based; conditions: in vivo

| Structure (SMILES) | half-life at 1 µM [1] [h] | half-life at 1 µM [2] [h] | logD at 12 h, 100 µM [3] | also measured |
| --- | --- | --- | --- | --- |
| Cc1cncc(NC(=O)C2(NC(=O)Nc3ccc(Br)cc3)CCCC2)c1 |  |  | 3.7 |  |
| CC(C)C[C@H](NC(=O)Nc1ccc(Br)cc1)C(=O)Nc1cccnc1 | 1.58 | 1.08 | 4.2 |  |
| O=C(Nc1ccc(Br)cc1)NC1(C(=O)Nc2cncnc2)CCCC1 | 1.83 | 1.73 | 3.7 |  |
| O=C(Nc1ccc(Br)cc1)NC1(C(=O)Nc2ccccn2)CCCC1 | 0.133 | 0.15 | 4.3 |  |
| O=C(Nc1ccc(Br)cc1)NC1(C(=O)Nc2ccc(Cl)nc2)CCCC1 | 0.867 | 0.533 | 4.4 |  |
| CC(C)n1cc(NC(=O)C2(NC(=O)Nc3ccc(Br)cc3)CCCC2)cn1 | 2.17 | 1.5 | 4.2 |  |
| O=C(CNC(=O)Nc1ccc(Br)cc1)Nc1cccnc1 | 1.87 | 0.367 | 3.6 |  |
| O=C(Nc1ccc(Br)cc1)N[C@@H](CC1CC1)C(=O)Nc1cccnc1 | 1.52 | 0.733 | > 4 |  |
| Cc1nn(C)cc1NC(=O)C1(NC(=O)Nc2ccc(Br)cc2)CCCC1 | 2.6 | 3.78 | 3.1 |  |
| O=C(Nc1ccc(Br)cc1)NC1(C(=O)NCc2nn[nH]n2)CCCC1 | 8.67 | 6.98 | 1.1 |  |
| Cc1ccc(NC(=O)C2(NC(=O)Nc3ccc(Br)cc3)CCCC2)cn1 | 1.67 | 0.6 | 3.9 |  |
| O=C(Nc1ccc(Br)cc1)NC1(C(=O)Nc2cccnc2)CCCC1 | 1.8 | 1.32 | 4.1 |  |

More lines, main results first:

| half-life at 1 µM [1] [h] | half-life at 1 µM [2] [h] | logD at 12 h, 100 µM [3] | Structure (SMILES) | also measured |
| --- | --- | --- | --- | --- |
| 1.83 | 7.95 | 2.5 | CN1CCC(NC(=O)C(NC(=O)Nc2ccc(Br)cc2)C2CCCC2)CC1 (configuration not stated) |  |
| 1.02 | 0.183 | > 4 | O=C(Nc1ccc(Br)cc1)NC(CC1CCCCC1)C(=O)Nc1cccnc1 (configuration not stated) |  |
| 2.62 | 3.23 | 1.2 | CN1CCC(NC(=O)C2(NC(=O)Nc3ccc(Br)cc3)CCCC2)CC1 |  |
| 0.267 | 0.183 | > 4 | O=C(Nc1ccc(Br)cc1)NC(C(=O)Nc1cccnn1)C1CCCC1 (configuration not stated) |  |
|  |  | > 4 | CC(C)n1cc(NC(=O)C(NC(=O)Nc2ccc(Br)cc2)C2CCCC2)cn1 (configuration not stated) |  |
|  |  | > 4 | Cc1nn(C)cc1NC(=O)C(NC(=O)Nc1ccc(Br)cc1)C1CCCC1 (configuration not stated) |  |
| 1.33 | 0.683 | > 4 | O=C(Nc1ccc(Br)cc1)NC(C(=O)Nc1cccnc1)C1CC1 (configuration not stated) |  |
| > 6.67 | > 6.67 | 4.3 | O=C(Nc1ccc(Br)cc1)NC(C(=O)NC1COC1)C1CCCC1 (configuration not stated) |  |
| 3.45 | 1.73 | > 4 | O=C(Nc1ccc(Br)cc1)NC(C(=O)NC1CCOCC1)C1CCCC1 (configuration not stated) |  |
| 0.217 | 0.417 | 4.7 | O=C(Nc1ccc(Br)cc1)NC(C(=O)NCC1CCCO1)C1CCCC1 (configuration not stated) |  |
| 3.07 | 1.53 | 4 | O=C(Nc1ccc(Br)cc1)NC(C(=O)Nc1cncnc1)C1CCCC1 (configuration not stated) |  |
| 1.38 | 0.55 | > 4 | O=C(Nc1ccc(Br)cc1)NC(C(=O)Nc1cccnc1)C1CCCC1 (configuration not stated) | AUC(0-t) at 24 h [4]: 69000 ng·h/mL; AUC(0-inf) [5]: 69000 ng·h/mL; Cmax [6]: 31900 ng/mL; half-life [7]: 2.08 h; MRT last at 24 h [8]: 2.41 h; %AUCextra [9]: 0.02%; Tmax [10]: 0.5 h |
| 3.13 | 1.5 | 4.7 | O=C(Nc1ccc(Br)cc1)NC(C(=O)Nc1cccnc1)C1CCOCC1 (configuration not stated) |  |
|  |  | 1.6 | O=C(Nc1ccc(Br)cc1)NC(C(=O)NC1CNC1)C1CCCC1 (configuration not stated) |  |
